Measurements published in patent publication US9579322B2, “Methods for treating neurologic disorders” (EIP Pharma, LLC, priority 2014, dated 2017).

Assays:
[1] = test system: rheumatoid arthritis (RA); conditions: cited from earlier work
[2] = test system: sensory-motor recovery after tMCAO; experiment: Transient MCAO in rats, functional recovery; assay type: in vivo, Sprague-Dawley rats; conditions: for change in cylinder test performance from day 7 to day 35: relative to vehicle; for functional recovery, 7-point neuroscore / functional recovery, 20-point neuroscore / functional recovery, limb placing: day 3 to day 42, versus vehicle
Experimental: The objective of this study was to investigate whether chronic twice-a-day treatment with VX-745 started at 48 hours post-occlusion provides sensory-motor recovery and neuroprotection in rats subjected to 120 min middle cerebral artery occlusion (tMCAO) at day 0. Seven and 20-point Neuroscore tests were performed to study sensory-motor deficits and general condition on days 1, 3, 7, 14, 21, 28, 35 and 42 post-ischemia. Cylinder test was performed on days 7, 14, 21 and 35 post-ischemia and limb-placing tests on days 1, 3, 7, 14, 21, 28, 35 and 42. Infarct volume was evaluated by T2-MRI at 24 h post-ischemia and rats were allocated to treatment groups based on the lesion data on day 2 and treatment was started after MRI on day 2. Methods—Male Sprague-Dawley rats were subjected to twice-a-day chronic treatment with VX-745 starting at 48 h after 120 min tMCAO. Lesion size was measured at 24 h with MRI and rats were allocated to dosing groups on day 2 (tMCAO performed on day 0) based on lesion size and limb placing results. Rats were treated with 2 different doses and underwent sensorimotor behavioral test throughout the experiment. Seven and 20-point Neuroscore and limb placing tests were performed to study sensory-motor deficits and general condition before occlusion and on days 1, 3, 7, 14, 21, 28, 35 and 42 post-ischemia. Cylinder test was performed before occlusion and on days 7, 14, 21 and 35 post-ischemia. Animals. Altogether 45 adult male Sprague Dawley rats, purchased from Charles River Laboratories (Sulzfeld, Germany), and weighing 250-300 g were used for the experiment. Animals were housed at a standard temperature (22±1° C.) and in a light-controlled environment (lights on from 7 am to 8 pm) with ad libitum access to food and water. • Group A: 15 tMCAO animals treated twice-a-day with vehicle from day 2 to 42 (5 ml/kg, p.o) • Group B: 15 tMCAO animals treated twice-a-day with VX-745 from day 2 to 42 (1.5 mg/kg, p.o). • Group C: 15 tMCAO animals treated twice-a-day with VX-745 from day 2 to 42 (4.5 mg/kg, p.o). Transient MCAO Transient focal cerebral ischemia was produced by MCA occlusion at Day 0 in male Sprague-Dawley rats according to Koizumi with modifications (Koizumi et al. Jpn. J. Stroke 8:1-8, 1986). The rats were anesthetized with 5% isoflurane (in 70% N2O and 30% O2; flow 300 ml/min). During the operation the concentration of anesthetic was reduced to 1.0-2.0%. The rectal temperature was maintained at 37.0±1.0° C. with a homeothermic blanket system. After midline skin incision, the right common carotid artery (CCA) was exposed, and the external carotid artery (ECA) was ligated distal from the carotid bifurcation. A 0.22-mm diameter monofilament nylon thread, with blunted tip, was inserted 22-23 mm into the internal carotid artery (ICA) up to the origin of MCA. After the monofilament insertion, CCA was occluded for 2 hours with a suture. After 120 min of ischemia, the MCA blood flow was restored by removal of the filament and the suture. The wound was closed, disinfected, and the animals were allowed to recover from anesthesia. The rats were carefully monitored for possible post-surgical complications after the tMCAO. The rats were fed with standard laboratory diet suspended in tap water after the tMCAO. To prevent dehydration all rats were given an i.p. injection of saline (4 mL per rat) once or twice-a-day as needed. Drug Delivery. VX-745 or vehicle was administered p.o. (5 ml/kg) starting after MRI at 48 h post-ischemia (i.e. Day 2) and continued twice-a day (morning and afternoon) until endpoint day 42. MRI acquisitions in vivo for all rats were performed at 24 h after tMCAO (i.e. […] Rats were allocated to treatment groups on day 2 based on the lesion data and treatment was started on day 2. A 20-point Neuroscore test was used to assess post-ischemic motor and behavioral deficits. The neurological test was conducted by a blinded investigator at pre-stroke (baseline) and on days 1, 3, 7, 14, 21, 28, 35 and 42 post-ischemia. […]

paw swelling = conditions: 10 mg/kg, reference compound in arthritis model; cited from earlier work
IL-1β = IL-1β ELISA of hippocampus extracts; assay type: in vivo, Fischer rats
Experimental: The primary objective of this study was to investigate whether pre-treatment with compound VX-745 alleviates cognitive defects in aged rats. Plasma concentration of VX-745 was determined with LC-MS/MS at the end of the study from samples collected 1 hour post dosing. In addition, protein levels of PSD95 in ventral cortex and hippocampus, and levels of IL-1β in the hippocampus were analyzed by specific ELISA assays to evaluate the potential anti-inflammatory effects of VX-745 in the brain
One hour after the last vehicle or VX-745 morning dosing, the animals (10 per dosing group) were deeply anesthetized with pentobarbital and blood samples were collected by cardiac puncture. 500 μl of blood was collected into EDTA microtubes, centrifuged, and plasma collected. The brains were perfused with heparinized saline, and the brains were collected. Right hemisphere was post-fixed by immersion in 4% PFA in 0.1 M PB for 24 h. After a brief wash with phosphate buffer, the hemisphere was cryoprotected in 30% sucrose in PB for 2-3 days, after which it was frozen on liquid nitrogen and stored at −80° C. for optional future immunohistochemical analysis. […]
Cortex and hippocampal soluble extracts were analyzed for PSD95 content using an ELISA kit (Cusabio Biotech Ltd., #CSB-EL006938RA, Lot 031154387), while the levels of Il-1β were analyzed only from hippocampus (R&D Systems, #RLB00, Lot 308544).

[3] = 250 mg b.i.d, phase 2 clinical, RA patients

**Q.** With VX-745 as the substance, how does the “adverse events in patients” value [1, 3] read?
**A.** adverse events, including gastrointestinal effects such as diarrhea and abdominal pain, and elevations in liver transaminases

**Q.** What about the “inflammatory markers and clinical improvement” value [1, 3] of the same substance?
**A.** significant reduction in inflammatory markers and clinical improvement

**Q.** What about the “mean plasma drug concentrations” value ([1]; 250 mg b.i.d, phase 2 clinical) of the same substance?
**A.** approximately 75 ng/m

**Q.** And the “adverse neurological effects in humans” value ([1]; humans)?
**A.** not observed

**Q.** What about the “mean blood concentration in the treatment of rheumatoid arthritis” value ([1]; treatment of rheumatoid arthritis) of the same substance?
**A.** approximately 75 ng/mL

**Q.** What about the “change in cylinder test performance from day 7 to day 35” value ([2]; 1.5 mg/kg p.o. twice-a-day) of the same substance?
**A.** a trend (p=0.088, two-sided t-test) towards increased improvement

**Q.** What about the “functional recovery, 7-point neuroscore” value ([2]; 1.5 mg/kg) of the same substance?
**A.** not further improve functional recovery

**Q.** What about the “functional recovery, 20-point neuroscore” value ([2]; 1.5 mg/kg) of the same substance?
**A.** not further improve functional recovery

**Q.** And the “functional recovery, limb placing” value ([2]; 1.5 mg/kg)?
**A.** not further improve functional recovery

**Q.** What about the “change in cylinder test performance from day 7 to day 35” value ([2]; 4.5 mg/kg p.o. twice-a-day) of the same substance?
**A.** not evident

**Q.** What about the “functional recovery, 7-point neuroscore” value ([2]; 4.5 mg/kg) of the same substance?
**A.** not further improve functional recovery

**Q.** And the “functional recovery, 20-point neuroscore” value ([2]; 4.5 mg/kg)?
**A.** not further improve functional recovery

**Q.** And the “functional recovery, limb placing” value ([2]; 4.5 mg/kg)?
**A.** not further improve functional recovery

**Q.** And the “functional recovery, 1.5 mg/kg group compared with 4.5 mg/kg group” value ([2]; all measures, change analysis)?
**A.** consistently better

**Q.** And the “inhibition of paw swelling” value (paw swelling)?
**A.** not as effective at inhibiting paw swelling as other compounds assayed

**Q.** And the “IL-1β levels in the hippocampus” value (IL-1β; 1.5 mg/kg)?
**A.** no evident effects

**Q.** And the “IL-1β levels in the hippocampus” value (IL-1β; 4.5 mg/kg, p=0.038 Mann-Whitney, similar to young rats)?
**A.** lower relative to the aged vehicle-treated group
